From patent publication US20250314656A1, “GENETICALLY ENCODED FLUORESCENT INDICATOR OF D-2-HYDROXYGLUTARATE” (priority 2024, published 2025)
Like-named read-outs stand apart in the source and are kept apart here.

Experiments:
[1] = molecular target: D2HGlo (Variant 2, SEQ ID NO: 4; Variant 2 truncated DhdR SEQ ID NO: 2, two residues removed from each terminus, between ECFP and cpVenus173) (Achromobacter denitrificans, UniProt A0ABZ3FXY3); type: binding, Achromobacter denitrificans NBRC 15125; conditions: concentrations up to 100 μM
[2] = tested on: IDH1 wildtype U87MG cells; assay: D-2-HG concentration in cell culture supernatant measured with purified D2HGlo, wildtype cells; type: cell-based, human
Experimental: (§1) Statistical analysis was performed using a one-way ANOVA test with post hoc Tukey (**, P<0.01; *, P<0.05). […] Statistical analysis was performed using a one-way ANOVA test with post hoc Tukey (*, P<0.05);
Both cell lines were left untreated or exposed to AG-120 (3 μM) for 48 hours prior to measurements. (B) Titration of purified D2HGlo with increasing concentrations of D-2-HG (100 nM-1 mM) spiked into human serum. […] (D) Titration of purified D2HGlo with increasing concentrations of D-2-HG (100 nM-1 mM) spiked into human urine. […] (F) Titration of purified D2HGlo with increasing concentrations of D-2-HG (100 nM-1 mM) spiked into aCSF.
Cell Culture Supernatant: U87MG IDH1 wildtype and mutant cells were plated at 60% confluence in 6-well plates. For some experiments, AG-120 in DMSO (3 μM), Glutaminase inhibitor (1 μM), or 2-DG (10 mM) was added to the cell culture media before plating the cells. For all conditions and cell lines, the cell culture supernatant was collected after 48 hours of incubation at 37° C. 10 μL of cell culture media was mixed with 90 μL of purified D2HGlo (5 μM), and the FRET ratios were collected. D-2-HG levels were estimated by using the titration curve as a calibration curve and converting the FRET ratios of unknowns into concentrations. Biological Fluids: Urine and serum were collected from three healthy donors while aCSF was purchased (Tocris Bioscience).

[3] = tested on: IDH1 wildtype U87MG cells; assay: FRET imaging of D2HGlo in IDH1 wildtype U87MG cells; type: cell-based, human; conditions: Compound 968 1 μM, approx. 5.5 minutes
Experimental: . […] . This evidence further supports the specificity of D2HGlo to endogenous D-2-HG in situ. […] . […] .
The inventors utilized the glutaminase C inhibitor Compound 968 and 2-Deoxy-D-glucose (2-DG), an inhibitor of glycolysis. […] . Cell Culture and Transfection. […] Cells were transfected 24 hours after plating with 1.0 μg D2HGlo constructs and 3.0 μL Trans-IT®-LT1 transfection reagent (Mirus Bio, Madison, WI). The cells were allowed to express for 48 hours before imaging.
Fluorescence Live-Cell Imaging. […] The standard imaging parametersD2HGlo sensors were: 457 excited at 458 nm laser line and 482 nm and 531 nm and the fluorescent signal was collected using a BA 480-495 emission filter (ECFP) and a BA 535-565 emission filter (FRET). The FRET ratio was determined by dividing the FRET signal by the ECFP signal. […] . The maximum FRET ratio was determined for the entire time-course and normalized to the baseline FRET ratio. […] A region of interest was drawn on each cell, and the average FRET ratio within each ROI was determined. In some sets of experiments, cells were treated with AG-120 (3 μM) for 48 hours prior to FRET ratio collection. Alternatively, glutaminase inhibitor (1 μM), or 2-DG (10 mM) were added to imaging wells after collecting baseline FRET values for 30 seconds.

[4] = tested on: IDH1 wildtype U87MG cells; assay: Live-cell D2HGlo FRET ratio after inhibitor treatment, wildtype cells; type: cell-based, human
Experimental: (A) Left: Representative image of a wild-type IDH1 U87MG cell expressing Cyto-D2HGlo. Scale bar is 25 μm. […] (B) Left: Representative image of a wild-type IDH1 U87 clel cell expressing Nuc-D2HGlo. Scale bar is 25 μm. […] (C) Left: Representative image of a wild-type IDH1 U87 cell expressing Mito-D2HGlo. Scale bar is 25 μm.
as §1
Fluorescence Live-Cell Imaging.

2-HG = conditions: newly diagnosed and advanced cancer; cited from earlier work
[5] = several freeze-thaw cycles or exposure to excess heat; cited from earlier work

O=C(O)CC(O)C(=O)O (racemic) [Malate, sodium hydrogen DL-malate]
response of D2HGlo (FRET ratio) to metabolite [1]: does not respond

CN(C)c1ccc(C2Nc3ccc4ccccc4c3C3=C2C(=O)CC(C)(C)C3)cc1Br (stereo not shown) [Compound 968]
D-2-HG accumulation in supernatant ([2]; Compound 968 1 μM for 48 hours): nor did it affect D-2-HG accumulation in cell culture supernatants
acute change of FRET ratio (Cyto-D2HGlo) [3]: did not elicit any changes in FRET ratio

C[C@H](O)C(=O)O [Lactate, sodium L-lactate]
response of D2HGlo (FRET ratio) to metabolite [1]: does not respond
response of D2HGlo (FRET ratio) to metabolite ([1]; listed as lactate): did not respond

O=C(O)CCC(=O)O [Succinate, succinic acid]
response of D2HGlo (FRET ratio) to metabolite [1]: does not respond

O=C(O)CC(O)(CC(=O)O)C(=O)O [Citrate]
response of D2HGlo (FRET ratio) to metabolite [1]: does not respond

O=C(O)CC(=O)C(=O)O [Oxaloacetate, Oxaloacetic acid]
response of D2HGlo (FRET ratio) to metabolite [1]: does not respond

O=CC[C@@H](O)[C@H](O)[C@H](O)CO [Variant 2-DG, 2-Deoxy-D-glucose]
acute change of Cyto-D2HGlo FRET ratio ([4]; 2-DG 10 mM, approximately 5.5 minutes): unaffected

O=C(O)CCC(=O)C(=O)O [α-ketoglutarate, α-ketoglutaric acid]
response of D2HGlo (FRET ratio) to metabolite [1]: does not respond

N#Cc1ccnc(N2C(=O)CC[C@H]2C(=O)N(c2cncc(F)c2)[C@H](C(=O)NC2CC(F)(F)C2)c2ccccc2Cl)c1 [AG-120]
effect on D-2-HG levels ([4]; AG-120 3 μM for 48 hours): had no effect on D-2-HG levels
D-2-HG concentration in supernatant ([2]; AG-120 3 μM for 48 hours): 2.79 ± 0.41 µM
effect on 2-HG levels in patients (2-HG): reduction of 2-HG to levels similar to those seen in healthy populations

N[C@@H](CCC(=O)O)C(=O)O [Glutamate, L-glutamic acid]
response of D2HGlo (FRET ratio) to metabolite [1]: does not respond
response of D2HGlo (FRET ratio) to metabolite ([1]; listed as glutamate): did not respond

O=C(O)CC[C@@H](O)C(=O)O [Variant D-2-HG, D-2-hydroxyglutarate]
stability in biological fluids [5]: remains stable
